Test results from patent US9896441B2 (Lycera Corporation, priority 2014, dated 2018).

Assays:
RORγ-LBD = biological target: T1, RORγ-LBD (Homo sapiens, UniProt P51449); experiment: RORγ-Ligand Binding Domain (LBD) TR-FRET Assay; type: biochemical; details: RORγ-LBD TR-FRET
T1 construct: made in house; host or cells: SF9 cells (baculovirus); used as diluted lysate
T1 sequence (P51449 269-508 limits assumed): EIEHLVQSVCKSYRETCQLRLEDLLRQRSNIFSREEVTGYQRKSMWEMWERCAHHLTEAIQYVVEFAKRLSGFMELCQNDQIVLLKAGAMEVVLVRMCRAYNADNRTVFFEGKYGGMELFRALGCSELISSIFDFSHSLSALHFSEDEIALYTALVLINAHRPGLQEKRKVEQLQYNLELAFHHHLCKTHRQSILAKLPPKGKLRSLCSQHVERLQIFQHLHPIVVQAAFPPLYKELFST
In short: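 Compounds, diluted in DMSO and then in assay buffer (1% DMSO final), were combined with His-tagged RORγ-LBD lysate at roughly 3 nM final and a 200 nM biotinylated SRC1 LXXLL peptide. Ursolic acid was included at 2 μM final. Coactivator recruitment was detected by TR-FRET.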

Gal4-RORγ-LBD = biological target: T2, Gal4-RORγ-LBD (Homo sapiens, UniProt P51449); experiment: Gal4-RORγ Luciferase Reporter Assay in HEK-293T Cells; type: cell-based; details: HEK-293 cells, luciferase reporter, with ursolic acid
T2 construct: expressed in transfected cells
T2 sequence (P51449 269-508 limits assumed): T1 sequence (P51449 269-508 limits assumed)
In short: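 Max Response was taken as the upper plateau of a 4-parameter logistic fit of luciferase signal, normalized to 100 for wells without ursolic acid or compound. Transiently Gal4-RORγ-LBD/Gal4-luc transfected HEK-293 cells carrying […] ursolic acid were incubated with test compounds (0.2% DMSO) overnight at 37 °C and read with One-Glo.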

| Compound | EC50 (RORγ-LBD) | EC50 (Gal4-RORγ-LBD) |
| --- | --- | --- |
| O=C(O)CC[C@H]1CN(S(=O)(=O)c2cc(C(F)(F)F)cnc2OCCO)c2cc(C=C3CCOCC3)ccc2O1 [Example 95O, (S)-3-(4-((2-(2-hydroxyethoxy)-5-(trifluoromethyl)pyridin-3-yl)sulfonyl)-6-((tetrahydro-4H-pyran-4-ylidene)methyl)-3,4-dihydro-2H-benzo[b][1,4]oxazin-2-yl)propanoic acid] | < 0.5 µM | 0.5 to 5 µM |
| O=C(O)CC[C@H]1CN(S(=O)(=O)c2cc(C(F)(F)F)cnc2OCCO)c2cc(/C=C3\CC4CCC3C4)ccc2O1 (stereo partly drawn) [Example 95T, 3-((2S)-6-((E)-bicyclo[2.2.1]heptan-2-ylidenemethyl)-4-((2-(2-hydroxyethoxy)-5-(trifluoromethyl)pyridin-3-yl)sulfonyl)-3,4-dihydro-2H-benzo[b][1,4]oxazin-2-yl)propanoic acid] | < 0.5 µM | 0.5 to 5 µM |
| CC1(C)CCC(=Cc2ccc3c(c2)N(S(=O)(=O)c2cc(C(F)(F)F)cnc2OCCO)C[C@H](CCC(=O)O)O3)CC1 [Example 95W, (S)-3-(6-((4,4-dimethyl-cyclohexylidene)methyl)-4-((2-(2-hydroxyethoxy)-5-(trifluoromethyl)pyridin-3-yl)sulfonyl)-3,4-dihydro-2H-benzo[b][1,4]oxazin-2-yl)propanoic acid] | < 0.5 µM | 0.5 to 5 µM |
| O=C(O)CC[C@H]1CN(S(=O)(=O)c2cc(C(F)(F)F)cnc2OCCO)c2cc(/C=C3/CCCOC3)ccc2O1 [Example 95Y, (S,Z)-3-(6-((dihydro-2H-pyran-3(4H)-ylidene)methyl)-4-((2-(2-hydroxyethoxy)-5-(trifluoromethyl)pyridin-3-yl)sulfonyl)-3,4-dihydro-2H-benzo[b][1,4]oxazin-2-yl)propanoic acid] | < 0.5 µM | 0.5 to 5 µM |

Continued, values first:

| EC50 (RORγ-LBD) | EC50 (Gal4-RORγ-LBD) | Compound |
| --- | --- | --- |
| < 0.5 µM | 0.5 to 5 µM | CC1CCC(=Cc2ccc3c(c2)N(S(=O)(=O)c2cc(C(F)(F)F)cnc2OCCO)C[C@H](CCC(=O)O)O3)CC1 (stereo partly drawn) [Example 95P, 3-((2S)-4-((2-(2-hydroxyethoxy)-5-(trifluoromethyl)pyridin-3-yl)sulfonyl)-6-((4-methylcyclohexylidene)methyl)-3,4-dihydro-2H-benzo[b][1,4]oxazin-2-yl)propanoic acid] |
| < 0.5 µM | < 0.5 µM | CC1CCCC/C1=C\c1ccc2c(c1)N(S(=O)(=O)c1cccc(C(F)(F)F)c1)C[C@H](CCC(=O)O)O2 (stereo partly drawn) [Example 95Q, 3-((2S)-6-((E)-(2-methylcyclohexylidene)methyl)-4-((3-(trifluoromethyl)phenyl)-sulfonyl)-3,4-dihydro-2H-benzo[b][1,4]oxazin-2-yl)propanoic acid] |
| < 0.5 µM | < 0.5 µM | CC1CCCC/C1=C\c1ccc2c(c1)N(S(=O)(=O)c1cc(C(F)(F)F)cnc1OCCO)C[C@H](CCC(=O)O)O2 (some centres unmarked) [Example 95R] |
| < 0.5 µM | < 0.5 µM | O=C(O)CC[C@H]1CN(S(=O)(=O)c2cccc(C(F)(F)F)c2)c2cc(/C=C3\CC4CCC3C4)ccc2O1 (stereo partly drawn) [Example 95S, 3-((2S)-6-((E)-bicyclo[2.2.1]heptan-2-ylidenemethyl)-4-((3-(trifluoromethyl)phenyl)sulfonyl)-3,4-dihydro-2H-benzo[b][1,4]oxazin-2-yl)propanoic acid] |
| < 0.5 µM | 0.5 to 5 µM | CC1CCCC(=Cc2ccc3c(c2)N(S(=O)(=O)c2cc(C(F)(F)F)cnc2OCCO)C[C@H](CCC(=O)O)O3)C1 (stereo partly drawn) [Example 95U, 3-((2S)-4-((2-(2-hydroxyethoxy)-5-(trifluoromethyl)pyridin-3-yl)sulfonyl)-6-((3-methylcyclohexylidene)methyl)-3,4-dihydro-2H-benzo[b][1,4]oxazin-2-yl)propanoic acid] |
| < 0.5 µM | 0.5 to 5 µM | C[C@@H]1C/C(=C\c2ccc3c(c2)N(S(=O)(=O)c2cccc(C(F)(F)F)c2)C[C@H](CCC(=O)O)O3)C[C@H](C)C1 [Example 95Z, 3-((S)-6-((E)-((3R,5S)-3,5-dimethylcyclohexylidene)-methyl)-4-((3-(trifluoromethyl)-phenyl)sulfonyl)-3,4-dihydro-2H-benzo[b][1,4]oxazin-2-yl)propanoic acid] |
